Experimental data reported in patent US20210254056A1, “IDENTIFICATION AND TARGETED MODULATION OF GENE SIGNALING NETWORKS” (CAMP4 THERAPEUTICS CORPORATION, priority 2017, published 2021).
Structures can show the parent of a compound that is named as a salt.

System: hepatocytes
Assay: RNA-seq of hepatocytes treated with Phase III failure compounds
Settings: for significant modulation of expression of disease genes: q≤0.05, genes in the value or listed in the block
Procedure: RNA-seq was performed to determine the effects of the compounds on hepatocytes.
Significance was determined by the criteria of FPKM≥0.5, a log 2(fold-change)≥1, and a […].

[1] = RNA-seq, hepatocytes, gene named in the value

CCN(CC)CCN(Cc1ccc(-c2ccc(C(F)(F)F)cc2)cc1)C(=O)Cn1c(SCc2ccc(F)cc2)nc(=O)c2c1CCC2 [Darapladib]
RNA-seq results, CYP2B6 expression: −0.12 | RNA-seq results, CYP2C19 expression: −0.01 | RNA-seq results, CYP2D6 expression: −0.21 | RNA-seq results, CYP3A4 expression: −0.47 | RNA-seq results, CYP7B1 expression: −0.03 | RNA-seq results, CYP39A1 expression: −0.23 | RNA-seq results: CYP2B6 expression: 0.25 | RNA-seq results: CYP2C19 expression: 0.54 | RNA-seq results: CYP2D6 expression: −0.06 | RNA-seq results: CYP3A4 expression: 0.07 | RNA-seq results: CYP7B1 expression: −0.46 | RNA-seq results: CYP39A1 expression: −0.07 | significant modulation of expression of disease genes (RNA-seq, hepatocytes): significantly (q≤0.05) modulate expression | genes down-regulated by the compound [1]: ANGPTL3 was observed to be down-regulated | genes up-regulated by the compound [1]: up-regulated genes: LDLR, PCSK9, and HMGCR | RNA-seq results: A1BG expression (gene A1BG, hepatocytes): 0.01 | RNA-seq results: AGTR1 expression (gene AGTR1, hepatocytes): −0.18 | RNA-seq results: AGXT expression (gene AGXT, hepatocytes): −0.38 | RNA-seq results: AHI1 expression (gene AHI1, hepatocytes): 0.12 | RNA-seq results: AMPD3 expression (gene AMPD3, hepatocytes): 0.42 | RNA-seq results: AMT expression (gene AMT, hepatocytes): −0.35 | RNA-seq results: ANGPTL3 expression (gene ANGPTL3, hepatocytes): −1.20 | RNA-seq results: ANKS4B expression (gene ANKS4B, hepatocytes): −0.52 | RNA-seq results: ANKS6 expression (gene ANKS6, hepatocytes): 0.11 | RNA-seq results: ANPEP expression (gene ANPEP, hepatocytes): 0.11 | RNA-seq results: AOC2 expression (gene AOC2, hepatocytes): 0.28 | RNA-seq results: APOA2 expression (gene APOA2, hepatocytes): −0.33 | RNA-seq results: APOA5 expression (gene APOA5, hepatocytes): −0.19 | RNA-seq results: APOB expression (gene APOB, hepatocytes): 0.54 | RNA-seq results: COG5 expression (gene COG5, hepatocytes): 0.11 | RNA-seq results: COG6 expression (gene COG6, hepatocytes): −0.09 | RNA-seq results: COL1A1 expression (gene COL1A1, hepatocytes): 0.18 | RNA-seq results: COX6A1 expression (gene COX6A1, hepatocytes): −0.08 | RNA-seq results: CP expression (gene CP, hepatocytes): 0.77 | RNA-seq results: CPS1 expression (gene CPS1, hepatocytes): −0.89 | RNA-seq results: CPT1A expression (gene CPT1A, hepatocytes): 0.11 | RNA-seq results: CPT2 expression (gene CPT2, hepatocytes): −0.16 | RNA-seq results: CROT expression (gene CROT, hepatocytes): −0.49 | RNA-seq results: CSPP1 expression (gene CSPP1, hepatocytes): 0.24 | RNA-seq results: CTC1 expression (gene CTC1, hepatocytes): −0.01 | RNA-seq results: CTDSP2 expression (gene CTDSP2, hepatocytes): 0.52 | RNA-seq results: CTH expression (gene CTH, hepatocytes): 1.17 | RNA-seq results: CTNS expression (gene CTNS, hepatocytes): −0.11 | RNA-seq results: CTSF expression (gene CTSF, hepatocytes): 0.25 | RNA-seq results: CTSK expression (gene CTSK, hepatocytes): 0.31 | RNA-seq results: CYB5A expression (gene CYB5A, hepatocytes): −0.12 | RNA-seq results: CYB5R3 expression (gene CYB5R3, hepatocytes): −0.21 | RNA-seq results: CYP27A1 expression (gene CYP27A1, hepatocytes): −0.18 | RNA-seq results: DAO expression (gene DAO, hepatocytes): −1.06 | RNA-seq results: DBT expression (gene DBT, hepatocytes): −0.13 | RNA-seq results: DCDC2 expression (gene DCDC2, hepatocytes): −1.43 | RNA-seq results: DCXR expression (gene DCXR, hepatocytes): −0.74 | RNA-seq results: FABP1 expression (gene FABP1, hepatocytes): 0.07 | RNA-seq results: FADD expression (gene FADD, hepatocytes): −0.45 | RNA-seq results: FAM111A expression (gene FAM111A, hepatocytes): 0.1 | RNA-seq results: FAM111B expression (gene FAM111B, hepatocytes): −2.15 | RNA-seq results: FAN1 expression (gene FAN1, hepatocytes): −0.03 | RNA-seq results: FARS2 expression (gene FARS2, hepatocytes): −0.42 | RNA-seq results: FASLG expression (gene FASLG, hepatocytes): −1.32 | RNA-seq results: FGA expression (gene FGA, hepatocytes): −0.32 | RNA-seq results: FGD1 expression (gene FGD1, hepatocytes): −0.46 | RNA-seq results: FGFR2 expression (gene FGFR2, hepatocytes): −0.13 | RNA-seq results: FIG4 expression (gene FIG4, hepatocytes): −0.07 | RNA-seq results: FIS1 expression (gene FIS1, hepatocytes): −0.35 | RNA-seq results: FTCD expression (gene FTCD, hepatocytes): −0.56 | RNA-seq results: FTH1 expression (gene FTH1, hepatocytes): 0.44 | RNA-seq results: FUCA1 expression (gene FUCA1, hepatocytes): −0.13 | RNA-seq results: FXN expression (gene FXN, hepatocytes): −0.22 | RNA-seq results: G6PC3 expression (gene G6PC3, hepatocytes): −0.52 | RNA-seq results: G6PC expression (gene G6PC, hepatocytes): 0.6 | RNA-seq results: G6PD expression (gene G6PD, hepatocytes): −0.41 | RNA-seq results: GALK1 expression (gene GALK1, hepatocytes): −0.61 | RNA-seq results: GALK2 expression (gene GALK2, hepatocytes): −0.14 | RNA-seq results: GALT expression (gene GALT, hepatocytes): −0.58 | RNA-seq results: GATA6 expression (gene GATA6, hepatocytes): 0 | RNA-seq results: GATM expression (gene GATM, hepatocytes): −0.52 | RNA-seq results: GBA expression (gene GBA, hepatocytes): −0.23 | RNA-seq results: GBE1 expression (gene GBE1, hepatocytes): −0.11 | RNA-seq results: GCH1 expression (gene GCH1, hepatocytes): −0.19 | RNA-seq results: GCKR expression (gene GCKR, hepatocytes): −0.06 | RNA-seq results: GCLC expression (gene GCLC, hepatocytes): −0.02 | RNA-seq results: GOSH expression (gene GOSH, hepatocytes): −1.21 | RNA-seq results: RRM2B (gene RRM2B, hepatocytes): −0.49 | RNA-seq results: RSAD1 (gene RSAD1, hepatocytes): −0.13 | RNA-seq results: SAMHD1 (gene SAMHD1, hepatocytes): −0.48 | RNA-seq results: SC5D (gene SC5D, hepatocytes): 0.37 | RNA-seq results: SCARB1 (gene SCARB1, hepatocytes): −0.07 | RNA-seq results: SCN9A (gene SCN9A, hepatocytes): −0.42 | RNA-seq results: SDCCAG8 (gene SDCCAG8, hepatocytes): −0.06 | RNA-seq results: SEPN1 (gene SEPN1, hepatocytes): −0.10 | RNA-seq results: SERAC1 (gene SERAC1, hepatocytes): −0.02 | RNA-seq results: SERPINA1 (gene SERPINA1, hepatocytes): −0.05 | RNA-seq results: SERPING1 (gene SERPING1, hepatocytes): 0.21 | RNA-seq results: SERPINI1 (gene SERPINI1, hepatocytes): −0.42 | RNA-seq results: SETBP1 (gene SETBP1, hepatocytes): −0.10 | RNA-seq results: SFXN4 (gene SFXN4, hepatocytes): −0.38 | RNA-seq results: SLC10A1 (gene SLC10A1, hepatocytes): −0.68 | RNA-seq results: SLC10A3 (gene SLC10A3, hepatocytes): 0.47 | RNA-seq results: SLC10A5 (gene SLC10A5, hepatocytes): −0.54 | RNA-seq results: SLC10A7 (gene SLC10A7, hepatocytes): −0.22 | RNA-seq results: SLC11A2 (gene SLC11A2, hepatocytes): 0.39 | RNA-seq results: SLC19A1 (gene SLC19A1, hepatocytes): −0.26 | RNA-seq results: SLC19A2 (gene SLC19A2, hepatocytes): 0.54 | RNA-seq results: SLC19A3 (gene SLC19A3, hepatocytes): −0.22 | RNA-seq results: SLC22A1 (gene SLC22A1, hepatocytes): −0.28 | RNA-seq results: SLC22A5 (gene SLC22A5, hepatocytes): −0.23 | RNA-seq results: SLC25A1 (gene SLC25A1, hepatocytes): 0.24 | RNA-seq results: SLC25A10 (gene SLC25A10, hepatocytes): −0.48 | RNA-seq results: SLC25A12 (gene SLC25A12, hepatocytes): −0.22 | RNA-seq results: SLC25A13 (gene SLC25A13, hepatocytes): 0.20 | RNA-seq results: SLC25A15 (gene SLC25A15, hepatocytes): −0.28 | RNA-seq results: SLC25A19 (gene SLC25A19, hepatocytes): 0.03 | RNA-seq results: SLC25A20 (gene SLC25A20, hepatocytes): −0.62 | RNA-seq results: SLC25A29 (gene SLC25A29, hepatocytes): 0.92 | RNA-seq results: SLC25A32 (gene SLC25A32, hepatocytes): −0.21

Cl.OC[C@H]1NC[C@H](O)[C@@H](O)[C@H]1O [Deoxygalactonojirimycin hydrochloride]
significant changes in gene expression (RNA-seq of Table 36, FPKM≥0.5, log 2(fold-change)≥1, q-value≤0.05): not observed to cause any significant changes in gene expression | significant modulation of expression of any of the genes analyzed (RNA-seq, p≤0.05, hepatocytes): not observed to significantly modulate expression

O=C(N[C@H]1CN2CCC1CC2)c1cc2cccc(Cl)c2s1 [EVP-6124 (hydrochloride) (encenicline), encenicline]
Number (#) of genes having significantly changed expression (RNA-seq, Phase III failure compounds, hepatocytes, significance: FPKM≥0.5, log 2(fold-change)≥1, q-value≥0.05 (so in the source)): 141 | significant modulation of expression of disease genes (RNA-seq, hepatocytes): significantly (q≤0.05) modulate expression | B2M expression, RNA-seq result (gene B2M, hepatocytes): 0.16 | B9D2 expression, RNA-seq result (gene B9D2, hepatocytes): −0.55 | BAAT expression, RNA-seq result (gene BAAT, hepatocytes): 0.61 | BBOX1 expression, RNA-seq result (gene BBOX1, hepatocytes): −0.14 | BBS10 expression, RNA-seq result (gene BBS10, hepatocytes): −0.33 | BCHE expression, RNA-seq result (gene BCHE, hepatocytes): −0.41 | BCKDHB expression, RNA-seq result (gene BCKDHB, hepatocytes): −0.31 | BCKDK expression, RNA-seq result (gene BCKDK, hepatocytes): −0.23 | BCO1 expression, RNA-seq result (gene BCO1, hepatocytes): 0.24 | BCR expression, RNA-seq result (gene BCR, hepatocytes): −0.06 | BLNK expression, RNA-seq result (gene BLNK, hepatocytes): 0.39 | BLOC1S3 expression, RNA-seq result (gene BLOC1S3, hepatocytes): 0.46 | BMPR1A expression, RNA-seq result (gene BMPR1A, hepatocytes): 0.09 | BRAF expression, RNA-seq result (gene BRAF, hepatocytes): 0.04 | BSCL2 expression, RNA-seq result (gene BSCL2, hepatocytes): −0.54 | BTD expression, RNA-seq result (gene BTD, hepatocytes): −0.08 | C4A expression, RNA-seq result (gene C4A, hepatocytes): 0.24 | C9 expression, RNA-seq result (gene C9, hepatocytes): −0.11 | C10orf10 expression, RNA-seq result (gene C10orf10, hepatocytes): −0.31 | C10orf11 expression, RNA-seq result (gene C10orf11, hepatocytes): 0.1 | C15orf41 expression, RNA-seq result (gene C15orf41, hepatocytes): −0.2 | CA2 expression, RNA-seq result (gene CA2, hepatocytes): 0.6 | CA5A expression, RNA-seq result (gene CA5A, hepatocytes): 0.1 | CA12 expression, RNA-seq result (gene CA12, hepatocytes): 0.58 | CAV1 expression, RNA-seq result (gene CAV1, hepatocytes): −0.81 | CCND1 expression, RNA-seq result (gene CCND1, hepatocytes): −0.9 | CD46 expression, RNA-seq result (gene CD46, hepatocytes): 0.24 | CD81 expression, RNA-seq result (gene CD81, hepatocytes): 0.27 | CD320 expression, RNA-seq result (gene CD320, hepatocytes): −0.04 | CDAN1 expression, RNA-seq result (gene CDAN1, hepatocytes): −0.04 | CDH1 expression, RNA-seq result (gene CDH1, hepatocytes): −0.12 | CEP19 expression, RNA-seq result (gene CEP19, hepatocytes): −0.06 | CEP83 expression, RNA-seq result (gene CEP83, hepatocytes): −0.3 | CEP164 expression, RNA-seq result (gene CEP164, hepatocytes): −0.12 | CEP290 expression, RNA-seq result (gene CEP290, hepatocytes): −0.26 | CFB expression, RNA-seq result (gene CFB, hepatocytes): 0.1 | CFHR2 expression, RNA-seq result (gene CFHR2, hepatocytes): −0.08 | CHRM3 expression, RNA-seq result (gene CHRM3, hepatocytes): 0.28 | CIDEC expression, RNA-seq result (gene CIDEC, hepatocytes): −0.13 | CLDN1 expression, RNA-seq result (gene CLDN1, hepatocytes): −0.46 | COG1 expression, RNA-seq result (gene COG1, hepatocytes): −0.19
